Columns and labels:
hCMEC/D3 cells = assay: Flow cytometry of cell uptake of Mϕ exosomes and endocytosis markers; format: cell-based, human; settings: for effect on uptake of Mϕ exosomes: CM-DiI labeled exosomes, 4 h; for effect on uptake of respective endocytosis marker: sucrose of transferrin, nystatin of CTB, EIPA of dextran (70 kDa)
Method: Flow Cytometry of Cell Uptake. hCMEC/D3 cells were grown in 24-well plates at […] for 4-5 days to reach confluence. Exosomes were labeled by adding CM-DiI dyes (2 μg/ml, Life Technologies) to the medium before the first […] pelleting step. In the uptake mechanism studies, the cells were pretreated with endocytosis inhibitors, carbohydrates or EGTA for 0.5 h, and then co-treated with CM-DiI labeled exosomes (0.6×10^10 exosomes/ml) for 4 h. The inhibition of endocytosis markers uptake was studied similarly. The endocytosis markers used were Alexa Fluor 488-Transferrin (10 μg/ml, Life technologies) for clathrin mediated endocytosis, Alexa Fluor 488-CTB (5 μg/ml, Life technologies) for caveolae mediated endocytosis, and FITC-Dextran (70 kDa, Sigma) (10 mg/ml) for macropinocytosis. The antibody block assays were done by co-incubating exosomes with antibodies or isotope controls at 100 μg/ml for 4 h. The cells were washed trice by PBS, detached by 0.25% trypsin/EDTA, collected by centrifugation at 100 g for 10 min, fixed with 4% paraformaldehyde for 10 min, and then resuspended in 0.35 ml PBS. Viable singlets were gated based on forward scatter and side scatter. 5,000-10,000 viable singlets were recorded for each sample on Becton Dickinson LSRII (BD Biosciences) using 488 nm and 532 nm lasers. Unless otherwise noted in figure legend, data are not normalized and reported as mean fluorescence±SD of 3 replicate wells.

[1] = Shinoda et al.; cited from earlier work
[2] = PK and distribution in healthy CD-1 mice; format: in vivo, mouse; settings: jugular vein
Method: Iodine Labeling. Exosomes and proteins were labeled with iodine by chloramine-T method (Yi et al., J. Controlled Release 191:34 (2014)). Briefly, exosomes or proteins were mixed with 1 mCi of Na^125I or Na^131I (Perkin Elmer) and 10 μg of chloramine-T in phosphate buffer (0.25 M, pH 7.5) for 60 s. Labeled exosomes and proteins were purified by Illustra Nap-5 columns (Life technologies) and collected in tubes pretreated with 1% BSA in PBS to prevent nonspecific adsorption. The iodine association (iodine in labeled sample/total iodine) was determined by trichloroacetic acid precipitation method (Yi et al., J. Controlled Release 191:34 (2014)). Briefly, 1 μl of purified samples was mixed with 0.5 ml of 1% BSA in PBS and 0.5 ml of 30% TCA, and then centrifuged at 5400 g for 10 min. The resulting pellet and supernatant were counted on r-counter (PerkinElmer). The iodine association was calculated as the percentage of pellet radioactivity to total radioactivity.
Animal Procedure. Mice were anesthetized with 40% urethane (4 g/kg) by intraperitoneal injection. Iodine labeled substances (4×10^5 cpm) were injected to the right jugular vein. At each time point, blood was collected from the left carotid artery, allowed to clot and then centrifuged at 5400 g for 10 min to collect serum. The whole brain and peripheral organs were removed and weighed immediately after blood sampling. The radioactivity of serum and tissues were counted and normalized to injected dose (ID) by volume (ml) or weight (g) (% ID/ml or % ID/g). An injection check representing ID was also counted (n=3).
PK data analysis. The noncompartmental PK parameters Vss (ml), Cl (ml/min), MRTlast and MRTinf (h) were estimated using Phoenix® WinNonlin® 6.3 (Pharsight). The Ki (slope) and Vi (y-intercept) were calculated from the linear portion of multiple-time regression analysis (Price et al., J. Pharmacol. Exper. Ther. 333:253 (2010); Patlak et al., J. Cerebral Blood Flow Metab. 3:1 (1983); Patlak et al., J. Cerebral Blood Flow Metab. 5:584 (1985)). Brain/serum ratio (Am/Cpt, ml/g) of co-injected BSA was used to correct for the vascular space or leakage (Banks et al, Brain Behav. Immun. 2010, 24:102 (2010)), and subtracted from that of tested substance to get the delta brain/serum ratio. The delta brain/serum ratio was plotted against exposure time following equation

Row | Compound | effect on uptake of Mϕ exosomes (hCMEC/D3 cells) | effect on uptake of respective endocytosis marker (hCMEC/D3 cells) | further results
1 | C[C@@H]1[C@H](O)[C@@H](C)/C=C/C=C/CC/C=C/C=C/C=C/C=C/C(O[C@H]2O[C@H](C)[C@@H](O)[C@H](N)[C@@H]2O)CC2O[C@](O)(CC(O)C(O)CCC(O)CC(O)CC(O)CC(=O)O[C@H]1C)CC(O)C2C(=O)O (stereo partly shown) [nystatin] | significantly decreased the uptake of Mϕ exosomes | diminished uptake of a respective endocytosis marker | 
2 | ^131I-BSA: 131I-labeled bovine serum albumin, co-injected vascular marker |  |  | Cl, previously published data [1]: 0.0035 mL/min; Vss, previously published data [1]: 1.5 mL; Cl [2]: 0.0039 mL/min; MRTinf [2]: 6.10 h; MRTlast [2]: 0.94 h; Vss [2]: 1.44 mL
3 | O=C(O)CN(CCOCCOCCN(CC(=O)O)CC(=O)O)CC(=O)O [EGTA, ethylene glycol-bis(2-aminoethylether)-N, N, N′, N′-tetraacetic acid] | decreased |  | 
4 | OC[C@H]1O[C@@](CO)(O[C@H]2O[C@H](CO)[C@@H](O)[C@H](O)[C@H]2O)[C@@H](O)[C@@H]1O [sucrose] | significantly decreased the uptake of Mϕ exosomes | diminished uptake of a respective endocytosis marker | 
5 | CCN(c1nc(N)c(C(=O)N=C(N)N)nc1Cl)C(C)C [EIPA, 5-(N-Ethyl-N-isopropyl) amiloride] | significantly decreased the uptake of Mϕ exosomes | diminished uptake of a respective endocytosis marker | 

From patent US20220409535A1, “BIOLOGICAL AGENT-EXOSOME COMPOSITIONS AND USES THEREOF” (The University of North Carolina at Chapel Hill, priority 2016, published 2022)
